# Results as given in US20110039721A1, “METHOD FOR PREDICTION ABOUT CARCINOGENICITY OF SUBSTANCE IN RODENT” (Chemicals Evaluation and Research Institute, priority 2007, published 2011).
# What was measured:
# [1] = tested on: rodent; settings: classification of the substance (C+/C−); cited from earlier work
# [2] = tested on: liver; settings: classification of the substance (Cr+/Cr−); cited from earlier work
# [3] = classification of the substance (M+/M−); cited from earlier work
# [4] = tested on: mRNA expressed from the genes (A) to (D) in rat liver; assay: Behavior of genes (mRNA expression level, oligo-DNA microarray) in rat liver after 28-day oral administration; format: in vivo; settings: for Behavior of gene caused by administration of chemical substance, Gene No. 4846 / Behavior of gene caused by administration of chemical substance, Gene No. 2026 / Behavior of gene caused by administration of chemical substance, Gene No. 4218 / Behavior of gene caused by administration of chemical substance, Gene No. 6182 / Behavior of gene caused by administration of chemical substance, Gene No. 5600: gene group (A); for Behavior of gene caused by administration of chemical substance, Gene No. 4846: Unigene No. Rn.144554; for Behavior of gene caused by administration of chemical substance, Gene No. 2026 / Behavior of gene caused by administration of chemical substance, Gene No. 4218: Unigene No. Rn.167075; for Behavior of gene caused by administration of chemical substance, Gene No. 6182: Unigene No. Rn.5834; for Behavior of gene caused by administration of chemical substance, Gene No. 5600: Unigene No. Rn.9836; for Behavior of gene caused by administration of chemical substance, Gene No. 1494 / Behavior of gene caused by administration of chemical substance, Gene No. 2045 / Behavior of gene caused by administration of chemical substance, Gene No. 2203: gene group (B); for Behavior of gene caused by administration of chemical substance, Gene No. 1494: Unigene No. Rn.1430; for Behavior of gene caused by administration of chemical substance, Gene No. 2045: Unigene No. Rn.19329; for Behavior of gene caused by administration of chemical substance, Gene No. 2203: Unigene No. Rn.21240; for Behavior of gene caused by administration of chemical substance, Gene No. 533 / Behavior of gene caused by administration of chemical substance, Gene No. 725 / Behavior of gene caused by administration of chemical substance, Gene No. 1163 / Behavior of gene caused by administration of chemical substance, Gene No. 4973 / Behavior of gene caused by administration of chemical substance, Gene No. 4095 / Behavior of gene caused by administration of chemical substance, Gene No. 1334 / Behavior of gene caused by administration of chemical substance, Gene No. 6620 / Behavior of gene caused by administration of chemical substance, Gene No. 6303 / Behavior of gene caused by administration of chemical substance, Gene No. 5878 / Behavior of gene caused by administration of chemical substance, Gene No. 1131 / Behavior of gene caused by administration of chemical substance, Gene No. 1562 / Behavior of gene caused by administration of chemical substance, Gene No. 1741 / Behavior of gene caused by administration of chemical substance, Gene No. 893 / Behavior of gene caused by administration of chemical substance, Gene No. 6026 / Behavior of gene caused by administration of chemical substance, Gene No. 154 / Behavior of gene caused by administration of chemical substance, Gene No. 1993 / Behavior of gene caused by administration of chemical substance, Gene No. 813 / Behavior of gene caused by administration of chemical substance, Gene No. 2494 / Behavior of gene caused by administration of chemical substance, Gene No. 2546 / Behavior of gene caused by administration of chemical substance, Gene No. 3776 / Behavior of gene caused by administration of chemical substance, Gene No. 3929 / Behavior of gene caused by administration of chemical substance, Gene No. 1119 / Behavior of gene caused by administration of chemical substance, Gene No. 6742 / Behavior of gene caused by administration of chemical substance, Gene No. 5634: gene group (C); for Behavior of gene caused by administration of chemical substance, Gene No. 533: Unigene No. Rn.106184; for Behavior of gene caused by administration of chemical substance, Gene No. 725: Unigene No. Rn.108075; for Behavior of gene caused by administration of chemical substance, Gene No. 1163: Unigene No. Rn.11766; for Behavior of gene caused by administration of chemical substance, Gene No. 4973: Unigene No. Rn.118529; for Behavior of gene caused by administration of chemical substance, Gene No. 4095: Unigene No. Rn.119024; for Behavior of gene caused by administration of chemical substance, Gene No. 1334 / Behavior of gene caused by administration of chemical substance, Gene No. 6620: Unigene No. Rn.120914; for Behavior of gene caused by administration of chemical substance, Gene No. 6303: Unigene No. Rn.123063; for Behavior of gene caused by administration of chemical substance, Gene No. 5878: Unigene No. Rn.143213; for Behavior of gene caused by administration of chemical substance, Gene No. 1131: Unigene No. Rn.144946; for Behavior of gene caused by administration of chemical substance, Gene No. 1562: Unigene No. Rn.14744; for Behavior of gene caused by administration of chemical substance, Gene No. 1741: Unigene No. Rn.1647; for Behavior of gene caused by administration of chemical substance, Gene No. 893: Unigene No. Rn.164817; for Behavior of gene caused by administration of chemical substance, Gene No. 6026: Unigene No. Rn.167685; for Behavior of gene caused by administration of chemical substance, Gene No. 154: Unigene No. Rn.185941; for Behavior of gene caused by administration of chemical substance, Gene No. 1993: Unigene No. Rn.18728; for Behavior of gene caused by administration of chemical substance, Gene No. 813: Unigene No. Rn.201760; for Behavior of gene caused by administration of chemical substance, Gene No. 2494: Unigene No. Rn.23969; for Behavior of gene caused by administration of chemical substance, Gene No. 2546: Unigene No. Rn.24561; for Behavior of gene caused by administration of chemical substance, Gene No. 3776: Unigene No. Rn.43232; for Behavior of gene caused by administration of chemical substance, Gene No. 3929: Unigene No. Rn.4620; for Behavior of gene caused by administration of chemical substance, Gene No. 1119: Unigene No. Rn.9757; for Behavior of gene caused by administration of chemical substance, Gene No. 6742: Unigene No. Rn.9779; for Behavior of gene caused by administration of chemical substance, Gene No. 5634: Unigene No. Rn.9862; for Behavior of gene caused by administration of chemical substance, Gene No. 5726: gene group (D), Unigene No. Rn.9939
# Procedure, shortened: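 Male F344 SPF rats, 5 weeks old, four per group, received carcinogens, non-carcinogens or solvent vehicle by oral gavage once daily for 28 days. Liver total RNA was then extracted. Changes of ≥1.5-fold or ≤1/1.5 versus vehicle control, in a consistent direction across carcinogens, counted as significant.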
structure (smiles),measurement,setting,value
"Cc1ccc(N)cc1Cl [TS080, 3-Chloro-p-toluidine]",Carcinogenicity,[1],C−
same,Liver carcinogenicity,[2],Cr−
same,Mutagenicity by Ames test,[3],M−
same,"Behavior of gene caused by administration of chemical substance, Gene No. 4846",[4],+
same,"Behavior of gene caused by administration of chemical substance, Gene No. 2026",[4],+
same,"Behavior of gene caused by administration of chemical substance, Gene No. 4218",[4],+
same,"Behavior of gene caused by administration of chemical substance, Gene No. 6182",[4],+
same,"Behavior of gene caused by administration of chemical substance, Gene No. 5600",[4],+
same,"Behavior of gene caused by administration of chemical substance, Gene No. 1494",[4],+
same,"Behavior of gene caused by administration of chemical substance, Gene No. 2045",[4],−
same,"Behavior of gene caused by administration of chemical substance, Gene No. 2203",[4],+
same,"Behavior of gene caused by administration of chemical substance, Gene No. 533",[4],+
same,"Behavior of gene caused by administration of chemical substance, Gene No. 725",[4],+
same,"Behavior of gene caused by administration of chemical substance, Gene No. 1163",[4],−
same,"Behavior of gene caused by administration of chemical substance, Gene No. 4973",[4],+
same,"Behavior of gene caused by administration of chemical substance, Gene No. 4095",[4],+
same,"Behavior of gene caused by administration of chemical substance, Gene No. 1334",[4],−
same,"Behavior of gene caused by administration of chemical substance, Gene No. 6620",[4],−
same,"Behavior of gene caused by administration of chemical substance, Gene No. 6303",[4],−
same,"Behavior of gene caused by administration of chemical substance, Gene No. 5878",[4],−
same,"Behavior of gene caused by administration of chemical substance, Gene No. 1131",[4],−
same,"Behavior of gene caused by administration of chemical substance, Gene No. 1562",[4],−
same,"Behavior of gene caused by administration of chemical substance, Gene No. 1741",[4],−
same,"Behavior of gene caused by administration of chemical substance, Gene No. 893",[4],+
same,"Behavior of gene caused by administration of chemical substance, Gene No. 6026",[4],−
same,"Behavior of gene caused by administration of chemical substance, Gene No. 154",[4],+
same,"Behavior of gene caused by administration of chemical substance, Gene No. 1993",[4],−
same,"Behavior of gene caused by administration of chemical substance, Gene No. 813",[4],+
same,"Behavior of gene caused by administration of chemical substance, Gene No. 2494",[4],−
same,"Behavior of gene caused by administration of chemical substance, Gene No. 2546",[4],+
same,"Behavior of gene caused by administration of chemical substance, Gene No. 3776",[4],−
same,"Behavior of gene caused by administration of chemical substance, Gene No. 3929",[4],−
same,"Behavior of gene caused by administration of chemical substance, Gene No. 1119",[4],−
same,"Behavior of gene caused by administration of chemical substance, Gene No. 6742",[4],−
same,"Behavior of gene caused by administration of chemical substance, Gene No. 5634",[4],−
same,"Behavior of gene caused by administration of chemical substance, Gene No. 5726",[4],+
"Clc1ccc(C(c2ccc(Cl)cc2)C(Cl)(Cl)Cl)cc1 [TS016, Dichloro-diphenyl-trichloroethane]",Carcinogenicity,[1],C+
same,Liver carcinogenicity,[2],Cr+
same,Mutagenicity by Ames test,[3],M−
same,"Behavior of gene caused by administration of chemical substance, Gene No. 4846",[4],−
same,"Behavior of gene caused by administration of chemical substance, Gene No. 2026",[4],−
same,"Behavior of gene caused by administration of chemical substance, Gene No. 4218",[4],−
same,"Behavior of gene caused by administration of chemical substance, Gene No. 6182",[4],+
same,"Behavior of gene caused by administration of chemical substance, Gene No. 5600",[4],−
same,"Behavior of gene caused by administration of chemical substance, Gene No. 1494",[4],+
same,"Behavior of gene caused by administration of chemical substance, Gene No. 2045",[4],+
same,"Behavior of gene caused by administration of chemical substance, Gene No. 2203",[4],+
same,"Behavior of gene caused by administration of chemical substance, Gene No. 533",[4],+
same,"Behavior of gene caused by administration of chemical substance, Gene No. 725",[4],−
same,"Behavior of gene caused by administration of chemical substance, Gene No. 1163",[4],−
same,"Behavior of gene caused by administration of chemical substance, Gene No. 4973",[4],−
same,"Behavior of gene caused by administration of chemical substance, Gene No. 4095",[4],+
same,"Behavior of gene caused by administration of chemical substance, Gene No. 1334",[4],−
same,"Behavior of gene caused by administration of chemical substance, Gene No. 6620",[4],−
same,"Behavior of gene caused by administration of chemical substance, Gene No. 6303",[4],−
same,"Behavior of gene caused by administration of chemical substance, Gene No. 5878",[4],−
same,"Behavior of gene caused by administration of chemical substance, Gene No. 1131",[4],−
same,"Behavior of gene caused by administration of chemical substance, Gene No. 1562",[4],−
same,"Behavior of gene caused by administration of chemical substance, Gene No. 1741",[4],+
same,"Behavior of gene caused by administration of chemical substance, Gene No. 893",[4],−
same,"Behavior of gene caused by administration of chemical substance, Gene No. 6026",[4],−
same,"Behavior of gene caused by administration of chemical substance, Gene No. 154",[4],−
same,"Behavior of gene caused by administration of chemical substance, Gene No. 1993",[4],−
same,"Behavior of gene caused by administration of chemical substance, Gene No. 813",[4],−
same,"Behavior of gene caused by administration of chemical substance, Gene No. 2494",[4],+
same,"Behavior of gene caused by administration of chemical substance, Gene No. 2546",[4],−
same,"Behavior of gene caused by administration of chemical substance, Gene No. 3776",[4],−
same,"Behavior of gene caused by administration of chemical substance, Gene No. 3929",[4],−
same,"Behavior of gene caused by administration of chemical substance, Gene No. 1119",[4],−
same,"Behavior of gene caused by administration of chemical substance, Gene No. 6742",[4],+
same,"Behavior of gene caused by administration of chemical substance, Gene No. 5634",[4],+
same,"Behavior of gene caused by administration of chemical substance, Gene No. 5726",[4],−
